Read-outs that look alike come from different tables or passages of the source.
Assays:
Experiment in all cases: biochemical
Design in all cases: Reaction Biology 371-kinase panel at Km ATP, per cent enzyme activity relative to DMSO, single dose in duplicate
BMX/ETK = BMX/ETK (Homo sapiens, UniProt P51813); conditions: duplicate measurements, Km ATP
How it was run: (§1)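 Activity of each kinase, normalised to DMSO-treated controls, served as the read-out. The inhibitor was tested at 300 nM against 371 kinases in vitro. Curves fitted by variable-slope sigmoidal dose-response, constrained to a bottom of 0, gave IC50.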

BTK = BTK (Homo sapiens, UniProt Q06187); conditions: duplicate measurements, Km ATP
Chain of BTK (Q06187 whole entry): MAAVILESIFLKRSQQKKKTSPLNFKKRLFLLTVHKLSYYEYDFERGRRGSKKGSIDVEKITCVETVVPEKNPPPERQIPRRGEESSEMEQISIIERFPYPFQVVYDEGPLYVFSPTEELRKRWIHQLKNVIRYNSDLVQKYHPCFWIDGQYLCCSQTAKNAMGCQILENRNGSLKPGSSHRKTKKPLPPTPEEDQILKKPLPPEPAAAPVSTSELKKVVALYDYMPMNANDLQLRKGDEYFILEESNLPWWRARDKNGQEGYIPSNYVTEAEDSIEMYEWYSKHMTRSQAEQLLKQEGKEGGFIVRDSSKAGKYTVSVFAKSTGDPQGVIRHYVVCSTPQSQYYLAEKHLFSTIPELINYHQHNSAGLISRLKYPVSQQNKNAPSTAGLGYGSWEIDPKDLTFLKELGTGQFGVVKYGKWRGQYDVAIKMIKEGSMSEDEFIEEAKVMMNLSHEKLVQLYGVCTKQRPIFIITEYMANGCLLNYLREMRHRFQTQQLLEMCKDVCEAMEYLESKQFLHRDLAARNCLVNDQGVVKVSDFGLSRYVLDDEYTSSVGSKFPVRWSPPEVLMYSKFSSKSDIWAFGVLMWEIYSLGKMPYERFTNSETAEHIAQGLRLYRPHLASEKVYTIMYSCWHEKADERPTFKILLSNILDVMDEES
How it was run: as §1

CDC7/DBF4 = CDC7/DBF4 (Homo sapiens, UniProt O00311); conditions: duplicate measurements, Km ATP
How it was run: as §1

CDK16/cyclin Y (PCTAIRE) = CDK16/cyclin Y (PCTAIRE) (Homo sapiens, UniProt Q00536); conditions: duplicate measurements, Km ATP
Chain of CDK16/cyclin Y (PCTAIRE) (Q00536 whole entry): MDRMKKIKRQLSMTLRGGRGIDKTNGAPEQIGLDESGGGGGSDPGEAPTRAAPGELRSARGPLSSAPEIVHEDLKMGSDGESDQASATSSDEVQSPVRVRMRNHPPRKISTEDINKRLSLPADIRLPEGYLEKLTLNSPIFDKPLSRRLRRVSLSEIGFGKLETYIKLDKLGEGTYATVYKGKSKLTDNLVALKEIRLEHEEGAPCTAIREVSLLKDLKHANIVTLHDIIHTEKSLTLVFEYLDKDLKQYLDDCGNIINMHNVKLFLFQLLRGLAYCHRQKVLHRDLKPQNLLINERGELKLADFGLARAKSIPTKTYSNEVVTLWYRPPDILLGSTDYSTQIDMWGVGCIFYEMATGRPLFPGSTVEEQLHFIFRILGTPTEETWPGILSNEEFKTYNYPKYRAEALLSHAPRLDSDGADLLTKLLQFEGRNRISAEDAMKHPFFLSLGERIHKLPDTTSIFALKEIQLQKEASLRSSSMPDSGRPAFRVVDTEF
Chain of CDK16/cyclin Y (PCTAIRE) (Q8ND76 whole entry partner): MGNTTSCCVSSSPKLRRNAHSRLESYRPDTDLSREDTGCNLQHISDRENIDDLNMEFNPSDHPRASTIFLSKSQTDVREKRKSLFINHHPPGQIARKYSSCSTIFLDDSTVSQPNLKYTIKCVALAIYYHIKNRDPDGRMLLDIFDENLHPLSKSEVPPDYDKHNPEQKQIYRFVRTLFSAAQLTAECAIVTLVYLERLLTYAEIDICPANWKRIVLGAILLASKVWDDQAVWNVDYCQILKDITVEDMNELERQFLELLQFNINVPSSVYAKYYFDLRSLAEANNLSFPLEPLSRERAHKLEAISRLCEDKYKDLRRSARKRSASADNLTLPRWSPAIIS
How it was run: as §1

CDK9/cyclin T2 = CDK9/cyclin T2 (Homo sapiens, UniProt P50750); conditions: duplicate measurements, Km ATP
Chain of CDK9/cyclin T2 (P50750 whole entry): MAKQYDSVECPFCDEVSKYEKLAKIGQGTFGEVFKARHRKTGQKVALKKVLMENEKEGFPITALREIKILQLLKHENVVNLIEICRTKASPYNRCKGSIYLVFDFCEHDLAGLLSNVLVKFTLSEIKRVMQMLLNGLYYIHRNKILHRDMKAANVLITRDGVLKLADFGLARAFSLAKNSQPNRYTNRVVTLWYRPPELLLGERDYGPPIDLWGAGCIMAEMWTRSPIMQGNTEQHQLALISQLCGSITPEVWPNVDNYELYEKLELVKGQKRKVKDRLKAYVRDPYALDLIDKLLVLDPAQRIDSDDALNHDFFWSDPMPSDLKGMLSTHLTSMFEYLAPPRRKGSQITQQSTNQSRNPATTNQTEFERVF
Chain of CDK9/cyclin T2 (O60583 whole entry partner): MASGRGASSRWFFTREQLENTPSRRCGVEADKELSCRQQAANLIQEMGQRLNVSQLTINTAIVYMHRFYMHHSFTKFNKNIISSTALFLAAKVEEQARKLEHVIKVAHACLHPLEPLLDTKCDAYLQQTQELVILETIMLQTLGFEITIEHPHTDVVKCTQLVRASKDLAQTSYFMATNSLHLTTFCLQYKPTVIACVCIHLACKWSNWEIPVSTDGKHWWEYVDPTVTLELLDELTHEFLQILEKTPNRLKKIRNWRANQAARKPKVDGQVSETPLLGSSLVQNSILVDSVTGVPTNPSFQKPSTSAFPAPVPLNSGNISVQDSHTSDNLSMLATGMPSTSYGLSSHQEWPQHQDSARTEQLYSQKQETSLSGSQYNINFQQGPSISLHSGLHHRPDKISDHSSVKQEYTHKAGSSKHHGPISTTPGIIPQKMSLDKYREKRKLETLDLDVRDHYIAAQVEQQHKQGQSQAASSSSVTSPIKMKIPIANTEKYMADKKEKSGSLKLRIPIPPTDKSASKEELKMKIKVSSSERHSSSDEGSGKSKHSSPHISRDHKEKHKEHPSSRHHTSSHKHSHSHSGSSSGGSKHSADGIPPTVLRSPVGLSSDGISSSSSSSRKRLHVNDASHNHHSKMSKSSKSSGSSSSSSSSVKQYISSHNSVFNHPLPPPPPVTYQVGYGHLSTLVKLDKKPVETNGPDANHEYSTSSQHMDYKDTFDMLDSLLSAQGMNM
How it was run: as §1

DAPK1 = DAPK1 (Homo sapiens, UniProt P53355); conditions: duplicate measurements, Km ATP
How it was run: as §1

DYRK2 = DYRK2 (Homo sapiens, UniProt Q92630); conditions: duplicate measurements, Km ATP
How it was run: as §1

EPHA6 = EPHA6 (Homo sapiens, UniProt Q9UF33); conditions: duplicate measurements, Km ATP
How it was run: as §1

FER = FER (Homo sapiens, UniProt P16591); conditions: duplicate measurements, Km ATP
How it was run: as §1

FGFR3 = FGFR3 (Homo sapiens, UniProt P22607); conditions: duplicate measurements, Km ATP
How it was run: as §1

MAPKAPK3 = MAPKAPK3 (Homo sapiens, UniProt Q16644); conditions: duplicate measurements, Km ATP
Chain of MAPKAPK3 (Q16644 whole entry): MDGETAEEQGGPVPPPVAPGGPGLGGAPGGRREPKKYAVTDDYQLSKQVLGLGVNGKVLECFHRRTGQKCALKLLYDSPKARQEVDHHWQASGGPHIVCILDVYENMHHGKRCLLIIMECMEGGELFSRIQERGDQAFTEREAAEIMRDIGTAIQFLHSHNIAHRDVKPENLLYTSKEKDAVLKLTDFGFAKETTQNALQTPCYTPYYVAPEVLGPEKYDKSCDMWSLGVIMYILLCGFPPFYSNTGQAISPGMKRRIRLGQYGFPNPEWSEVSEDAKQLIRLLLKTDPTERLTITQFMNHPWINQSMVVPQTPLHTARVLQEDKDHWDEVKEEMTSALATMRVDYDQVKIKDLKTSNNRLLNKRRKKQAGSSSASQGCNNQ
How it was run: as §1

MKK7 = molecular target: T1, MKK7 (Homo sapiens, UniProt O14733); conditions: duplicate measurements, Km ATP
T1 construct: gene MAP2K7
How it was run: as §1

MST2/STK3 = MST2/STK3 (Homo sapiens, UniProt Q13188); conditions: duplicate measurements, Km ATP
Chain of MST2/STK3 (Q13188 whole entry): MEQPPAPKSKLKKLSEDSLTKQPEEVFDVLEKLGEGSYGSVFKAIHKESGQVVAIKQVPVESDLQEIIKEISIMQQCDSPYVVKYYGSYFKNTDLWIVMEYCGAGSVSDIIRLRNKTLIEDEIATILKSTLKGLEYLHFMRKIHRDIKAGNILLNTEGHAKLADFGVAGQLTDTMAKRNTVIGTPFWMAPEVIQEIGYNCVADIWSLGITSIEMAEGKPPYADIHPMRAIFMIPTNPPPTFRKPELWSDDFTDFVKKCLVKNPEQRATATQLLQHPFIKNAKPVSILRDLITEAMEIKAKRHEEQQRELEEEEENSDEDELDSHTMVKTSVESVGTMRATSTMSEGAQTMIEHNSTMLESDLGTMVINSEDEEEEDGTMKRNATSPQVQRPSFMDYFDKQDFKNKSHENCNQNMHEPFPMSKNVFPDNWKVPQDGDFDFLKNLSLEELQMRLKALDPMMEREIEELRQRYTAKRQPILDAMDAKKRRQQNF
How it was run: as §1

MUSK = MUSK (Homo sapiens, UniProt O15146); conditions: duplicate measurements, Km ATP
How it was run: as §1

PAK2 = PAK2 (Homo sapiens, UniProt Q13177); conditions: duplicate measurements, Km ATP; read-out: % Enzyme Activity (relative to DMSO controls) / TP-0005801 (0.3µM) / Data 1
How it was run: as §1

PKCb1 = molecular target: T2, PKCb1 (Homo sapiens, UniProt P05771); conditions: duplicate measurements, Km ATP
T2 construct: gene PRKCB; isoform beta I
How it was run: as §1

PKG1a = molecular target: T3, PKG1a (Homo sapiens, UniProt Q13976); conditions: duplicate measurements, Km ATP
T3 construct: gene PRKG1; isoform alpha
T3 sequence (Q13976 whole entry, canonical isoform): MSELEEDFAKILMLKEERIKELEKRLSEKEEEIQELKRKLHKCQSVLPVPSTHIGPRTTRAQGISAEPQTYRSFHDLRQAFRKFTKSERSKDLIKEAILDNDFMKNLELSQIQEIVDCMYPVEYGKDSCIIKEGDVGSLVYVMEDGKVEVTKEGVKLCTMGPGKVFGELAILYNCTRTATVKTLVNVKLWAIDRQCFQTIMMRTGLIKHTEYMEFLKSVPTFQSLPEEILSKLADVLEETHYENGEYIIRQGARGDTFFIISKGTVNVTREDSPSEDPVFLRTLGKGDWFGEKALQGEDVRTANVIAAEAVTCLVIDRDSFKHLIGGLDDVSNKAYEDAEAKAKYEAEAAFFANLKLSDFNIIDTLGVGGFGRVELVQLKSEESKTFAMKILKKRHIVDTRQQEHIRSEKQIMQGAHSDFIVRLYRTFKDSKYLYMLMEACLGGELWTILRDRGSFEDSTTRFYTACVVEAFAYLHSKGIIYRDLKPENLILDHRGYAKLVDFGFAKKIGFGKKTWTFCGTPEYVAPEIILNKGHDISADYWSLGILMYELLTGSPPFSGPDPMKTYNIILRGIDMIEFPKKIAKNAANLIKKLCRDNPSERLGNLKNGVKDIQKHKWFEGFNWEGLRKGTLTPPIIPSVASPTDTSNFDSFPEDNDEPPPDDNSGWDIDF
How it was run: as §1

PKG1b = molecular target: T4, PKG1b (Homo sapiens, UniProt Q13976); conditions: duplicate measurements, Km ATP
T4 construct: gene PRKG1; isoform beta
T4 sequence (Q13976 whole entry, canonical isoform): as above
How it was run: as §1

TRKB = molecular target: T5, TRKB (Homo sapiens, UniProt Q16620); conditions: duplicate measurements, Km ATP
T5 construct: gene NTRK2
How it was run: as §1

WNK3 = WNK3 (Homo sapiens, UniProt Q9BYP7); conditions: duplicate measurements, Km ATP
How it was run: as §1

[1] = read-out: % Enzyme Activity (relative to DMSO controls) / TP-0005801 (0.3µM) / Data 1
[2] = read-out: % Enzyme Activity (relative to DMSO controls) / TP-0005801 (0.3µM) / Data 2

Chain of BMX/ETK (P51813 whole entry): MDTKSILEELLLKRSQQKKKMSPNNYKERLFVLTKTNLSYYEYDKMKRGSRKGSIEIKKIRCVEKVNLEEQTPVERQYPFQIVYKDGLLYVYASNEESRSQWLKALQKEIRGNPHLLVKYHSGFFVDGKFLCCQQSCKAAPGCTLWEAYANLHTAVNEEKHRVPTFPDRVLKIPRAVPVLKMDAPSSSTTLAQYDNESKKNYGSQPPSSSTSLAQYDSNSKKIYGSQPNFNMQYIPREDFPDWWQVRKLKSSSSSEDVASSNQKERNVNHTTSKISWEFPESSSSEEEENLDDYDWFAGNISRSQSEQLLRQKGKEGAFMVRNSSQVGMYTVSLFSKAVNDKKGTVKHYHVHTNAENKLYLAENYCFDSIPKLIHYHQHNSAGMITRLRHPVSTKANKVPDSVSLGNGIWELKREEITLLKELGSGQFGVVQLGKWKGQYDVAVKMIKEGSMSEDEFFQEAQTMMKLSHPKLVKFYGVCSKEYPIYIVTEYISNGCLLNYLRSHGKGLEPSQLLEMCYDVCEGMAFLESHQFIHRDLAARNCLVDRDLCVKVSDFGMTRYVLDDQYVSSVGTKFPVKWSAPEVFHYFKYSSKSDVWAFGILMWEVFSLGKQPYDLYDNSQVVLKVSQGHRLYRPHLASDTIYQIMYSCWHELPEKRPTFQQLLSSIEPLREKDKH

`COc1cc(N2CCN(C)CC2)c(C)cc1Nc1ncc(Br)c(Nc2cccnc2N(C)C)n1` [TP-5801] gave a remaining activity at 0.3 µM (BMX/ETK; [1]) of 115%, a remaining activity at 0.3 µM (BMX/ETK; [2]) of 114% and a remaining activity at 0.3 µM (BTK; [1]) of 93.6%. It also gave a remaining activity at 0.3 µM (BTK; [2]) of 92.1%, a remaining activity at 0.3 µM (CDC7/DBF4; [1]) of 124% and a remaining activity at 0.3 µM (CDC7/DBF4; [2]) of 123%. For the same compound, the remaining activity at 0.3 µM (CDK16/cyclin Y (PCTAIRE); [1]) was 99.8%, the remaining activity at 0.3 µM (CDK16/cyclin Y (PCTAIRE); [2]) was 97.2% and the remaining activity at 0.3 µM (CDK9/cyclin T2; [1]) was 89.2%. The remaining activity at 0.3 µM (CDK9/cyclin T2; [2]) was 88.6%, the remaining activity at 0.3 µM (DAPK1; [1]) was 102% and the remaining activity at 0.3 µM (DAPK1; [2]) was 101%. It also gave a remaining activity at 0.3 µM (DYRK2; [1]) of 94.2%, a remaining activity at 0.3 µM (DYRK2; [2]) of 90.5% and a remaining activity at 0.3 µM (EPHA6; [1]) of 103%. For the same compound, the remaining activity at 0.3 µM (EPHA6; [2]) was 98.6%, the remaining activity at 0.3 µM (FER; [1]) was 11.7% and the remaining activity at 0.3 µM (FER; [2]) was 11.4%. It also gave a remaining activity at 0.3 µM (FGFR3; [1]) of 107%, a remaining activity at 0.3 µM (FGFR3; [2]) of 105% and a remaining activity at 0.3 µM (MAPKAPK3; [1]) of 104%. The remaining activity at 0.3 µM (MAPKAPK3; [2]) was 103%, the remaining activity at 0.3 µM (MKK7; [1]) was 103% and the remaining activity at 0.3 µM (MKK7; [2]) was 102%. It also gave a remaining activity at 0.3 µM (MST2/STK3; [1]) of 97.7%, a remaining activity at 0.3 µM (MST2/STK3; [2]) of 97.5% and a remaining activity at 0.3 µM (MUSK; [1]) of 62%. For the same compound, the remaining activity at 0.3 µM (MUSK; [2]) was 57.2%, the remaining activity at 0.3 µM (PAK2) was 104% and the remaining activity at 0.3 µM (PKCb1; [1]) was 90.9%. The remaining activity at 0.3 µM (PKCb1; [2]) was 90.2%, the remaining activity at 0.3 µM (PKG1a; [1]) was 87.6% and the remaining activity at 0.3 µM (PKG1a; [2]) was 85.6%. For the same compound, the remaining activity at 0.3 µM (PKG1b; [1]) was 51%, the remaining activity at 0.3 µM (PKG1b; [2]) was 50% and the remaining activity at 0.3 µM (TRKB; [1]) was 96.1%. For the same compound, the remaining activity at 0.3 µM (TRKB; [2]) was 95.9%, the remaining activity at 0.3 µM (WNK3; [1]) was 87.5% and the remaining activity at 0.3 µM (WNK3; [2]) was 86.5%.
